Assay results published in paper PMC11972452 (ACS infectious diseases, 2024).

Molecular target: OXA-58 (Acinetobacter baumannii, UniProt Q2TR58)
Assay: time-resolved X-ray crystallography of the acyl-enzyme complex
Type: biochemical
Conditions: read-out: Ki

Sequence of OXA-58 (Q2TR58 19-280): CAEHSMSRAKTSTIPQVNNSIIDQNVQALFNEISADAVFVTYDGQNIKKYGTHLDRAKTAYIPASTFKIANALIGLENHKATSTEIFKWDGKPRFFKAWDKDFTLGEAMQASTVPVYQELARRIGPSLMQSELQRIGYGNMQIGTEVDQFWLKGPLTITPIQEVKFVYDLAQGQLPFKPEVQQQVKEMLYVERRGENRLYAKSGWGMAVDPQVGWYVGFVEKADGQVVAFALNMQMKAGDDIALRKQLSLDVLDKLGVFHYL

SMILES: CC(O)[C@H]1C(=O)N2C(C(=O)O)=C(S[C@H]3CNC(C(=O)N(C)C)C3)C[C@]12C (stereo partly shown) [NA-1-157, NA-1–157]
- KI (inactivation): 1900 ± 300 nM
